We go through 40 compounds from ChEMBL document CHEMBL5042533, “Structural Optimization and Structure-Activity Relationship Studies of 6,6-Dimethyl-4-(phenylamino)-6H-pyrimido[5,4-b][1,4]oxazin-7(8H)-one Derivatives as A New Class of Potent Inhibitors of Pan-Trk and Their Drug-Resistant Mutants” (J Med Chem, 2022).

A value given as a limit tells only on which side of the number the result lay.

For data set [1], the target named is High affinity nerve growth factor receptor (Homo sapiens, UniProt P04629). Put plainly: Inhibition of wild type TrkA (unknown origin) using poly(Glu: Tyr) as substrate preincubated for 15 mins followed by substrate addition and further incubated for 30 mins in presence of [gamma-33P]ATP by scintillation counting method.
Chain of High affinity nerve growth factor receptor (P04629 whole entry): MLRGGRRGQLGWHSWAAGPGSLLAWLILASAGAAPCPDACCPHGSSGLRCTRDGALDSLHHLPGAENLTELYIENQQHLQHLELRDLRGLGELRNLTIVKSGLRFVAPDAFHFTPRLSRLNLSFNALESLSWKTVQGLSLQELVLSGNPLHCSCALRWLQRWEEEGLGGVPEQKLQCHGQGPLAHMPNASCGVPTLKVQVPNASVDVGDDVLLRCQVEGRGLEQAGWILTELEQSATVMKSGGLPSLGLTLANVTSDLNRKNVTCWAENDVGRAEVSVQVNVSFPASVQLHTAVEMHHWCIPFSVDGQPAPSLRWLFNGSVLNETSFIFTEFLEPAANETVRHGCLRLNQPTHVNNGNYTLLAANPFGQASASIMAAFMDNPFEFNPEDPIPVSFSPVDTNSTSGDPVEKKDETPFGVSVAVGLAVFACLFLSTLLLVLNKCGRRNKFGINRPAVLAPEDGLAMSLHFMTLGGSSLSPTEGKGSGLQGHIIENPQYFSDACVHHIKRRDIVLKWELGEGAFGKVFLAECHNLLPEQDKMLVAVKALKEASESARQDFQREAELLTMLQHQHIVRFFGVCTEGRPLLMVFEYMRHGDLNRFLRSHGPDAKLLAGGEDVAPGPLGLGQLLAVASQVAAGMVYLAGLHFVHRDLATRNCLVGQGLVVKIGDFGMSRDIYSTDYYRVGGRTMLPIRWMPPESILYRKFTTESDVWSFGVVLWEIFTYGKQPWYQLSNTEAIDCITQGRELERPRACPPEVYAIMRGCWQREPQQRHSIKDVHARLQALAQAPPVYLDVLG
The target in data set [2] is BDNF/NT-3 growth factors receptor (Homo sapiens, UniProt Q16620). Description: Inhibition of wild type TrkB (unknown origin) using poly(Glu: Tyr) as substrate preincubated for 15 mins followed by substrate addition and further incubated for 30 mins in presence of [gamma-33P]ATP by scintillation counting method.
Chain of BDNF/NT-3 growth factors receptor (Q16620 whole entry): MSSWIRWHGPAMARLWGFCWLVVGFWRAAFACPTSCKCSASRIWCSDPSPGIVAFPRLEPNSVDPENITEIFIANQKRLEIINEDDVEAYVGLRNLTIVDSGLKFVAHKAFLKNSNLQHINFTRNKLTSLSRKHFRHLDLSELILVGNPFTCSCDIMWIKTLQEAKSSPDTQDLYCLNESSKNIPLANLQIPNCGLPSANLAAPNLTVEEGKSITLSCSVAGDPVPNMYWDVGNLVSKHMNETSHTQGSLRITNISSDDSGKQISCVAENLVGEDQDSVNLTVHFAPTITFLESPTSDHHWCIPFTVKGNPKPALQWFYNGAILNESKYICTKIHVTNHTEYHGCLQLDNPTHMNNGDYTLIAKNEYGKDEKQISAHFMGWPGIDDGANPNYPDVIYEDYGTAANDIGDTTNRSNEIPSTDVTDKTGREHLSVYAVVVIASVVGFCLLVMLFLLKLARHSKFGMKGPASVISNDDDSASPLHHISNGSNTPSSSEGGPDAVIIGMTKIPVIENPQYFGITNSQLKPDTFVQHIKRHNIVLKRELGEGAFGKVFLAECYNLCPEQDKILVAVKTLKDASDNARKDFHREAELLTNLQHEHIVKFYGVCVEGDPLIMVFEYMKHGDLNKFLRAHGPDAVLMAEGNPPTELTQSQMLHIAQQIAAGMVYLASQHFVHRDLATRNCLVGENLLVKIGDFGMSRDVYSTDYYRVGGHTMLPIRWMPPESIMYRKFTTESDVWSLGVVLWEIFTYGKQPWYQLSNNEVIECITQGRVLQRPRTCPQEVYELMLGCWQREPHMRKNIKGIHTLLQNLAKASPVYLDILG
The test system of data set [3] is BaF3. Put plainly: cells. Conditions: Mus musculus.
Description: Cytotoxicity against mouse BaF3 cells harboring TEL fused TrkC G613R mutant assessed as inhibition of cell growth by MTT assay
Data set [4] deals with BaF3. Description: Cytotoxicity against mouse BaF3 cells expressing LMNA fused TrkA F589L mutant assessed as inhibition of cell growth incubated for 3 days by CCK-8 assay. It counts as functional, cell-based. Conditions: BaF3, 72 h. A general note: Formazan colour is commonly taken as a measure of viable cells.
Data set [5] can be described thus: in vitro. Conditions: mouse, BaF3 cells.
Description: Cytotoxicity against mouse BaF3 assessed as inhibition of cell growth incubated for 3 days by CCK-8 assay
The test system of data set [6] is BaF3. Put plainly: cells. Conditions: Mus musculus, BaF3, 72 h.
Description: Cytotoxicity against mouse BaF3 cells expressing TEL fused TrkC assessed as inhibition of cell growth incubated for 3 days by CCK-8 assay
For data set [7], the system named is BaF3. Description: cells. Conditions: Mus musculus, BaF3, 72 h. The source holds these as a separate data set.
The subject of data set [8] is BaF3. Description: cells. Conditions: Mus musculus, BaF3, 72 h. This is another data set of the same source.
Description: Cytotoxicity against mouse BaF3 cells expressing TEL fused TrkC G623R assessed as inhibition of cell growth incubated for 3 days by CCK-8 assay
Data set [9] deals with BaF3. Description: cells. Conditions: Mus musculus, BaF3, 72 h. This is another data set of the same source.
Data set [10] relates to BaF3. Description: cells. Conditions: Mus musculus, BaF3, 72 h. This is another data set of the same source.
Description: Cytotoxicity against mouse BaF3 cells expressing TEL fused TrkA assessed as inhibition of cell growth incubated for 3 days by CCK-8 assay
A short description of data set [11]: cells. Conditions: Homo sapiens, KM12-Luc, 72 h.
Description: Cytotoxicity against human KM12-Luc cells expressing TPM3 fused TrkA assessed as inhibition of cell growth incubated for 3 days by CCK-8 assay
Data set [12] has as its system BaF3. Put plainly: cells. Conditions: Mus musculus, BaF3, 72 h. This is another data set of the same source.
Description: Cytotoxicity against mouse BaF3 cells expressing CD74 fused TrkA assessed as inhibition of cell growth incubated for 3 days by CCK-8 assay
The test system of data set [13] is BaF3. Description: cells. Conditions: Mus musculus, BaF3, 72 h. The source holds these as a separate data set.
Description: Cytotoxicity against mouse BaF3 cells expressing LMNA fused TrkA G667S mutant assessed as inhibition of cell growth incubated for 3 days by CCK-8 assay
Data set [14] deals with BaF3. Put plainly: cells. Conditions: Mus musculus, BaF3, 72 h. This is another data set of the same source.
Description: Cytotoxicity against mouse BaF3 cells expressing TEL fused TrkC G696C assessed as inhibition of cell growth incubated for 3 days by CCK-8 assay

Usually IC50 stands for the midpoint of a concentration-inhibition curve. Take `Cc1cc(NC(=O)Nc2cc(C(C)(C)C)nn2-c2ccccc2F)ccc1Nc1ncnc2c1OC(C)(C)C(=O)N2`: the concentration for half-maximal inhibition (IC50) in [1] is 20 nM; in data set [2], 15 nM; in data set [3], 3270 nM.

Regarding `CC1(C)Oc2c(ncnc2Nc2ccc(NC(=O)Nc3ccc(F)c(F)c3)cc2)NC1=O`, the IC50 in [1] and in data set [2] was > 10000 nM each time.

On to `Cc1cc(NC(=O)Nc2cc(C(C)(C)C)nn2-c2ccc3ccccc3c2)ccc1Nc1ncnc2c1OC(C)(C)C(=O)N2`, for which the IC50 in data set [1] is 41 nM; in data set [2], 245 nM; in data set [3] it was > 10000 nM.

As for `C=CCNC(=O)Nc1ccc(Nc2ncnc3c2OC(C)(C)C(=O)N3)cc1`, the IC50 in [1] and in data set [2] was > 10000 nM throughout.

Turning to `CC1(C)Oc2c(ncnc2Nc2ccc(NC(=O)Nc3cc(C(F)(F)F)cc(C(F)(F)F)c3)cc2)NC1=O`, the values for the 50% inhibitory concentration (IC50) in [1], in data set [2] and in [3] were 100 nM, 202 nM and 5080 nM, respectively.

In the case of `CC(C)n1nc(C(C)(C)C)cc1NC(=O)Nc1ccc(Nc2ncnc3c2OC(C)(C)C(=O)N3)cc1`, the half-maximal inhibitory concentration (IC50) in data set [1], in data set [2] and in data set [3] was > 10000 nM in each case.

For the compound `Cc1cc(NC(=O)Nc2cc(C(C)(C)C)nn2-c2cccc(F)c2)ccc1Nc1ncnc2c1OC(C)(C)C(=O)N2`, the concentration for half-maximal inhibition (IC50) in [1] turned out to be 13 nM; in data set [2] it was 14 nM; in data set [3], 1140 nM.

On to `CC1(C)Oc2c(ncnc2Nc2ccc(NC(=O)Nc3cc(C(C)(C)C)nn3-c3ccccc3)c(C(F)(F)F)c2)NC1=O`, for which the half-inhibitory concentration (IC50) in data set [1] was 149 nM; in data set [2], 182 nM; in [3], 3900 nM.

Take `CC1(C)Oc2c(ncnc2Nc2ccc(NC(=O)Nc3cc(C(C)(C)C)on3)cc2)NC1=O`: the IC50 in [1] amounted to 156 nM; in data set [2], 33 nM; in data set [3], 3760 nM.

Consider `Cn1nc(C(C)(C)C)cc1NC(=O)Nc1ccc(Nc2ncnc3c2OC(C)(C)C(=O)N3)cc1`, for which the IC50 in [1] and in [2] was > 10000 nM each time.

Take `CC1(C)Oc2c(ncnc2Nc2ccc(NC(=O)Nc3ccc(C#N)cc3)cc2)NC1=O`: the IC50 in data set [1] and in data set [2] was > 10000 nM each time.

Consider `CC1(C)Oc2c(ncnc2Nc2ccc(NC(=O)Nc3ccc(Cl)c(C(F)(F)F)c3)cc2)NC1=O`, for which the concentration for half-maximal inhibition (IC50) in data set [1] stood at 211 nM; in [2], 381 nM; in [3], 1350 nM.

As for `COc1cc(NC(=O)Nc2cc(C(C)(C)C)nn2-c2ccccc2)ccc1Nc1ncnc2c1OC(C)(C)C(=O)N2`, the half-inhibitory concentration (IC50) is 50 nM in data set [1], 123 nM in data set [2] and 9290 nM in [3].

For the compound `Cc1cc(NC(=O)Nc2cc(C(C)(C)C)nn2-c2cccnc2)ccc1Nc1ncnc2c1OC(C)(C)C(=O)N2`, the values for the half-maximal inhibitory concentration (IC50) in data set [1], in data set [2] and in [3] were 14 nM, 22 nM and 709 nM, respectively.

As for `CC(C)(C)NC(=O)Nc1ccc(Nc2ncnc3c2OC(C)(C)C(=O)N3)cc1`, the concentration for half-maximal inhibition (IC50) in data set [1] and in data set [2] was > 10000 nM each time.

Consider `CC1(C)Oc2c(ncnc2Nc2ccc(NC(=O)NC3CCCCC3)cc2)NC1=O`, for which the 50% inhibitory concentration (IC50) in [1] and in [2] was > 10000 nM throughout.

For `CCNC(=O)Nc1ccc(Nc2ncnc3c2OC(C)(C)C(=O)N3)cc1`, the IC50 in data set [1] and in data set [2] was > 10000 nM throughout.

In the case of `CC1(C)Oc2c(ncnc2Nc2ccc(NC(=O)Nc3cc(C(C)(C)C)no3)cc2)NC1=O`, the IC50 in data set [1] was 111 nM; in [2], 48 nM; in data set [3], 6520 nM.

On to `CC1(C)Oc2c(ncnc2Nc2ccc(NC(=O)Nc3cc(C(C)(C)C)nn3C(C)(C)C)cc2)NC1=O`, for which the values for the IC50 in [1], in data set [2] and in [3] were 6200 nM, 1400 nM and > 10000 nM, respectively.

Regarding `CC1(C)Oc2c(ncnc2Nc2ccc(NC(=O)Nc3cc(C(C)(C)C)nn3-c3ccccc3)c3ccccc23)NC1=O`, the IC50 in [1] was 87 nM; in [2], 88 nM; in [3] it was 382 nM.

Regarding `Cc1cc(Nc2ncnc3c2OC(C)(C)C(=O)N3)ccc1NC(=O)Nc1cc(C(C)(C)C)nn1-c1ccccc1`, the IC50 turned out to be 127 nM in data set [1], 88 nM in data set [2] and 6040 nM in data set [3].

On to `Cc1cc(NC(=O)Nc2cc(C(C)(C)C)nn2-c2ccccc2)ccc1Nc1ncnc2c1OC(C)(C)C(=O)N2`, for which the IC50 in data set [4] is 19 nM; in [1], 13 nM; in data set [6], 39 nM; in [7], 151 nM; in [8], 51 nM; in data set [9], 2 nM. Moreover, the IC50 in data set [10] turned out to be 15 nM; in data set [3] it was 51 nM; in data set [11], 21 nM; in [12], 5 nM; in [13], 34 nM. For the same compound, in data set [5], the IC50 at 3 days was > 10000 nM.

Consider `Cc1cc(NC(=O)Nc2cc(C(C)(C)C)nn2-c2ccc(F)cc2)ccc1Nc1ncnc2c1OC(C)(C)C(=O)N2`, for which the 50% inhibitory concentration (IC50) in data set [1] worked out at 30 nM; in data set [2], 12 nM; in data set [3] it was 245 nM.

Regarding `CC1(C)Oc2c(ncnc2Nc2ccc(NC(=O)NC34C[C@H]5C[C@@H](C3)C[C@@H](C4)C5)cc2)NC1=O`, the IC50 in data set [1] and in data set [2] was > 10000 nM in each case.

With `Cc1cc(NC(=O)Nc2cc(C(C)(C)C)nn2-c2c(F)c(F)c(F)c(F)c2F)ccc1Nc1ncnc2c1OC(C)(C)C(=O)N2`, the IC50 in data set [1] worked out at 52 nM; in data set [2], 42 nM; in [3], 740 nM.

Regarding `Cc1ccc(NC(=O)Nc2ccc(Nc3ncnc4c3OC(C)(C)C(=O)N4)cc2)cc1`, the IC50 in [1] and in data set [2] was > 10000 nM each time.

Regarding `CC1(C)Oc2c(ncnc2Nc2ccc(NC(=O)Nc3cccc(C(F)(F)F)c3)cc2)NC1=O`, the IC50 in data set [2] was 17 nM; in data set [3], 4020 nM.

For `CSc1cc(Nc2ncnc3c2OC(C)(C)C(=O)N3)ccc1NC(=O)Nc1cc(C(C)(C)C)nn1-c1ccccc1`, the results for the IC50 in data set [1], in data set [2] and in data set [3] were 89 nM, 106 nM and 230 nM, respectively.

Regarding `COc1cc(Nc2ncnc3c2OC(C)(C)C(=O)N3)ccc1NC(=O)Nc1cc(C(C)(C)C)nn1-c1ccccc1`, the results for the half-maximal inhibitory concentration (IC50) in [1], in data set [2] and in [3] were 38 nM, 10 nM and 978 nM, respectively.

In the case of `CC1(C)Oc2c(ncnc2Nc2ccc(NC(=O)Nc3cc(C(C)(C)C)nn3-c3ccccc3)c(F)c2)NC1=O`, the 50% inhibitory concentration (IC50) was found to be 81 nM in [1], 38 nM in data set [2] and 978 nM in data set [3].

For the compound `CC1(C)Oc2c(ncnc2Nc2cccc(NC(=O)Nc3cc(C(C)(C)C)nn3-c3ccccc3)c2)NC1=O`, the figures for the IC50 in data set [2] and in data set [3] were 342 nM and > 10000 nM, respectively.

For `Cc1cc(NC(=O)Nc2cc(C(C)(C)C)nn2-c2ccc(OC(F)(F)F)cc2)ccc1Nc1ncnc2c1OC(C)(C)C(=O)N2`, the IC50 in data set [1] stood at 46 nM; in data set [2] it was 40 nM; in data set [3], 86 nM.

Regarding `Cc1ccc(-n2nc(C(C)(C)C)cc2NC(=O)Nc2ccc(Nc3ncnc4c3OC(C)(C)C(=O)N4)c(C)c2)cc1`, the half-inhibitory concentration (IC50) amounted to 2 nM in data set [14]; 4 nM in [4]; 22 nM in [1]; 13 nM in data set [6]; 31 nM in data set [7]; 58 nM in [8]. The IC50 in [9] was 1 nM; in data set [10], 1 nM; in data set [2], 18 nM; in data set [3], 58 nM; in data set [11] it was 6 nM; in [12] it was 5 nM. The compound further came in with a 50% inhibitory concentration (IC50) in data set [13] of 4 nM. In data set [5], the midpoint of inhibition, the IC50 at 3 days, lay at 2990 nM.

In the case of `CC1(C)Oc2c(ncnc2Nc2ccc(NC(=O)Nc3cc(C(C)(C)C)nn3C3CCCCC3)cc2)NC1=O`, the IC50 in [1] was found to be 344 nM; in data set [2] it was 228 nM; in [3], 1560 nM.

On to `CC1(C)Oc2c(ncnc2Nc2ccc(NC(=O)Nc3cc(C(C)(C)C)nn3-c3ccccc3)cc2)NC1=O`, for which the IC50 in data set [1] is 35 nM; in data set [2], 21 nM; in [3], 396 nM.

As for `O=C(Nc1cnn2ccc(N3CCC[C@@H]3c3cc(F)ccc3F)nc12)N1CC[C@H](O)C1` [LAROTRECTINIB], the concentration for half-maximal inhibition (IC50) came out at 586 nM in [14]; 547 nM in data set [4]; 59 nM in data set [6]; 4060 nM in data set [7]; 1490 nM in data set [8]; 1260 nM in data set [9]. In addition, the IC50 turned out to be 11 nM in data set [10], 11 nM in data set [11], 1 nM in data set [12] and 321 nM in [13]. In data set [5], this compound showed an IC50 at 3 days of 3570 nM.

With `Cc1cc(NC(=O)Nc2cc(-c3ccccc3)nn2-c2ccccc2)ccc1Nc1ncnc2c1OC(C)(C)C(=O)N2`, the IC50 was 38 nM in data set [1], 171 nM in data set [2] and 1900 nM in data set [3].

With `CC1(C)Oc2c(ncnc2Nc2ccc(NC(=O)Nc3cccc(F)c3)cc2)NC1=O`, the IC50 in [1] and in data set [2] was > 10000 nM each time.

For `Cc1cc(NC(=O)Nc2cc(C3CC3)nn2-c2ccccc2)ccc1Nc1ncnc2c1OC(C)(C)C(=O)N2`, the figures for the IC50 in [1], in data set [2] and in data set [3] were 23 nM, 10 nM and 2010 nM, respectively.

In the case of `Cc1cc(NC(=O)Nc2cc(C(C)(C)C)nn2-c2ccc(C(F)(F)F)cc2)ccc1Nc1ncnc2c1OC(C)(C)C(=O)N2`, the IC50 in [14] was found to be 3 nM; in data set [4], 13 nM; in [8], 86 nM; in data set [9] it was 2 nM; in data set [10], 2 nM; in [3], 86 nM. Further, the IC50 in data set [11] worked out at 13 nM; in data set [12], 2 nM; in [13], 10 nM. The IC50 at 3 days in [5] is > 10000 nM.
